Values joined by “and” are separate entries in the source; they are usually repeats but may differ in a detail not shown here. Equal entries are not always repeated. Where two headings read alike, the source gives them in different places.
Legend:
human AhR = target: T1, human AhR (Homo sapiens, UniProt P35869); assay: AhR-responsive luciferase reporter gene induction in recombinant human hepatoma; details: for potency relative to TCDD, in words / increased potency compared to tryptanthrin (3): 6h; for AhR-dependent reporter gene activity (efficacy), in words: Figure 3
T1 sequence (P35869 11-848): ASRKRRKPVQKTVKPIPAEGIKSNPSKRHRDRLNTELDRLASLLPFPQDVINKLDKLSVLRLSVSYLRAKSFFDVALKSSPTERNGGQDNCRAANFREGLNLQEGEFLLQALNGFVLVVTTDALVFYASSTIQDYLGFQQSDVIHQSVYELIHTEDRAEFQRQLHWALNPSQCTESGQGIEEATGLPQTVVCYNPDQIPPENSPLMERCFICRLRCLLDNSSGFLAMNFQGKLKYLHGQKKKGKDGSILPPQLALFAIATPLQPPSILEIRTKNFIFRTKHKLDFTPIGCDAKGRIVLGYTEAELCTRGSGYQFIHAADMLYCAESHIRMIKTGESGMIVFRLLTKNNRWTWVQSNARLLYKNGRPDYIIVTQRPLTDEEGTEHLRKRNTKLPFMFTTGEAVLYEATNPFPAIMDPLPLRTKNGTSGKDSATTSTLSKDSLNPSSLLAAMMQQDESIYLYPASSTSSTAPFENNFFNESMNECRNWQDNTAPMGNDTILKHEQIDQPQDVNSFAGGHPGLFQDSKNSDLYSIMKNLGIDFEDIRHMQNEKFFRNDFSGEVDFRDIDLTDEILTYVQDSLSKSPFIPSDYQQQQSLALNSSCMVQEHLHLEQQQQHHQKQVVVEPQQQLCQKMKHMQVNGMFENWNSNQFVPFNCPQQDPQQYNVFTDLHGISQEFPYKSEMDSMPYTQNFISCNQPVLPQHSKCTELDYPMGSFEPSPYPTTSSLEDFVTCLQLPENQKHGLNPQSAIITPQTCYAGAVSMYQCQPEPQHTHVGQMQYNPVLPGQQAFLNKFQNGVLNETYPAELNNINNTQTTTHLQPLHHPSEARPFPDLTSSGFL

mouse AhR [1] = target: T2, mouse AhR (Mus musculus, UniProt P30561); details: mouse H1L7.5c3 cells
T2 sequence (P30561 10-805 limits assumed): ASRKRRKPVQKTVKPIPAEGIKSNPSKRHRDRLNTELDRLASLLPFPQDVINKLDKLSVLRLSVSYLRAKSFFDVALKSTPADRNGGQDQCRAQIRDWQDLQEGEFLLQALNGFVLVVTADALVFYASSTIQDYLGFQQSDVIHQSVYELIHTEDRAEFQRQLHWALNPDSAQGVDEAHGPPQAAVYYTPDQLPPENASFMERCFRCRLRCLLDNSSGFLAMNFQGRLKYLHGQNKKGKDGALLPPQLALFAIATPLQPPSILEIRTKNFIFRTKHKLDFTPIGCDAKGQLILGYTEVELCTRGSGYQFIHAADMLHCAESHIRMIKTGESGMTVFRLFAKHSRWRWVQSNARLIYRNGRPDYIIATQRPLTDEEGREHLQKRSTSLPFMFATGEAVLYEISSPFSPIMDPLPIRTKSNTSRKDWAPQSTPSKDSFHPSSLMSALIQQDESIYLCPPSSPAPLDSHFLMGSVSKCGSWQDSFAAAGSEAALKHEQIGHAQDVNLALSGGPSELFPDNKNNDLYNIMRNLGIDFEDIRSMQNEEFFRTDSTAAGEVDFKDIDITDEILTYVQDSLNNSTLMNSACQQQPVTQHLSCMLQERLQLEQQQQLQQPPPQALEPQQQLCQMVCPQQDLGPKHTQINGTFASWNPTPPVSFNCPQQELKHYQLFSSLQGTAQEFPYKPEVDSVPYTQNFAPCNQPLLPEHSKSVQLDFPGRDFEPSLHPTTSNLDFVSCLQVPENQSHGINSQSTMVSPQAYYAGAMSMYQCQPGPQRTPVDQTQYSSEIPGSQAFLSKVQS
T2 sequence (P11499 whole entry partner): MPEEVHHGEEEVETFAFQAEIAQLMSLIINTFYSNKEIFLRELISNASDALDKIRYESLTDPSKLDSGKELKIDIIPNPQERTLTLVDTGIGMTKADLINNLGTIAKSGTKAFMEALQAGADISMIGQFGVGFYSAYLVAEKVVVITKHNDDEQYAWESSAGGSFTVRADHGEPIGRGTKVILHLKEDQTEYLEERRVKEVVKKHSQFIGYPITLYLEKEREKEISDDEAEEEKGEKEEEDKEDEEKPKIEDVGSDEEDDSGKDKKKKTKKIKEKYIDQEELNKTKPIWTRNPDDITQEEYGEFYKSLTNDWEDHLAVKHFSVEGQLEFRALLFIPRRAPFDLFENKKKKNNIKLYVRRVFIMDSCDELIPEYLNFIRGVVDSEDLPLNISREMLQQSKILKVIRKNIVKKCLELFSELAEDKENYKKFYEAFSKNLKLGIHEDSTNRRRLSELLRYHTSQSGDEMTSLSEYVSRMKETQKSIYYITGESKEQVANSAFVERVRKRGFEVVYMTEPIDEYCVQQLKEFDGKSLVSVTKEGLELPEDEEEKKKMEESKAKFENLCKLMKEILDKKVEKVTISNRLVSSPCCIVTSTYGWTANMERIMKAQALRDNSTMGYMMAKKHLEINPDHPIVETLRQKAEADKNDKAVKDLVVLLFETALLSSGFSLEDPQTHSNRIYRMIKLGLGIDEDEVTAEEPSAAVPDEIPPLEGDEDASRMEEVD
T2 sequence (O08915 whole entry partner): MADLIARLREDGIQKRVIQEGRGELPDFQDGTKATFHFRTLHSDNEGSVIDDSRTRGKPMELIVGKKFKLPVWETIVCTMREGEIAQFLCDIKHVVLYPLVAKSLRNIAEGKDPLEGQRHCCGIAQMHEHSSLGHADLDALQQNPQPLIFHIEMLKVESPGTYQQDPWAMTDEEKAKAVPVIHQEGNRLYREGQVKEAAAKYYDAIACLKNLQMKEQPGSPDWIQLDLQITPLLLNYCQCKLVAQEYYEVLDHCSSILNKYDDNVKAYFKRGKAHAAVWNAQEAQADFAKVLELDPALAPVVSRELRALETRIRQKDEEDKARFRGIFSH

AhR [2] = target: AhR (Homo sapiens, UniProt P35869); format: cell-based; details: HG2L7.5c1 cells, 6h, Figure 4
AhR [3] = details: ref [37]; cited from earlier work
mouse AhR [4] = target: T2, mouse AhR; assay: cell-based
AhR [5] = details: mice or mouse cells; ref [34], [35], [76]; cited from earlier work

O=C1Nc2ccc(Cl)cc2C1=C1Nc2ccc(Cl)cc2C1=O [2b, 5,5’-dichloroindirubin]
potency relative to TCDD, in words (human AhR; human HG2L7.5c1 cells): comparable to or greater than TCDD

O=C1Nc2cc(Br)ccc2/C1=C1/Nc2cc(Br)ccc2C1=O [2f, 6,6’-dibromoindirubin]
potency relative to TCDD, in words (human AhR; human HG2L7.5c1 cells): comparable to or greater than TCDD

O=C1c2ccc(Br)cc2-n2c1nc1cc(Br)ccc1c2=O [3f, 3,9-dibromotryptanthrin]
times less potent than TCDD (mouse AhR [1]): 4,000 fold and ~ 4,000 fold
increased potency compared to tryptanthrin (3) (human AhR; human HG2L7.5c1 cells): 350 fold
potency relative to TCDD, in words (human AhR; human HG2L7.5c1 cells): comparable to the potency of TCDD
potency relative to TCDD, in words (human AhR; human HG2L7.5c1 cells, listed as 3,9-dibromotryptanthrin): equipotent
EC50 (human AhR; human HG2L7.5c1 cells, evaluated at 6h): 0.5 nM
AhR-dependent reporter gene activity (efficacy), in words (human AhR; human cells): induced maximal AhR-dependent reporter gene activity

O=C(O)Cc1ccc2c(c1)-n1c(nc3cc(CC(=O)O)ccc3c1=O)C2=O [3g, 3,9-dicarboxymethylotryptanthrin]
AhR-dependent reporter gene activity (efficacy), in words (human AhR; human cells): completely inactive

O=C1c2ccccc2-n2c1nc1cc(Br)ccc1c2=O [3h, 3-bromotryptanthrin]
times less potent than TCDD (mouse AhR [1]): 10,000 fold
times less potent than TCDD (mouse AhR [1]; listed as 3-bromotryptanthrin): > 10,000 fold
times more potent than TCDD (human AhR; human HG2L7.5c1 cells): 10 fold
increased potency compared to tryptanthrin (3) (human AhR; human HG2L7.5c1 cells): 3,000 fold
AhR-dependent reporter gene activity (efficacy), in words (human AhR; human cells): comparable to that produced by a maximally inducing concentration of TCDD

Cc1ccccc1N=Nc1ccc(NC(=O)c2ccnn2C)c(C)c1 [CH223191]
inhibition of TCDD-dependent induction of luciferase reporter gene expression (AhR [2]): inhibit
effect of antagonist on AhR activation by indirubin (AhR [3]): little effect
effect of antagonist on ability of TCDD to bind to and activate the AhR (AhR [3]): effectively inhibit

CC(C)n1cnc2c(NCCc3ccc(O)cc3)nc(-c3csc4ccccc34)nc21 [StemRegenin1]
inhibition of TCDD-dependent induction of luciferase reporter gene expression (AhR [2]): inhibit

Clc1cc2c(cc1Cl)Oc1cc(Cl)c(Cl)cc1O2 [TCDD, 2,3,7,8-tetrachlorodibenzo-p-dioxin, reference compound]
EC50 (mouse AhR [4]): 0.1 nM
EC50 (human AhR; EC50 for gene induction at 24h of incubation, human cells, 24h incubation): 0.3 nM

O=C1Nc2ccccc2/C1=C1/Nc2ccccc2C1=O [compound 2, Indirubin]
less potent than TCDD (AhR [5]): ~ 100

O=C1c2ccccc2-n2c1nc1ccccc1c2=O [compound 3, Tryptanthrin]
EC50 (mouse AhR [4]): 810 nM
EC50 (human AhR): 170 nM

Reference: PMC7757739 (Chemical research in toxicology, 2019)
